# “Also recorded” adds a separate entry of the source. Structures can show the parent of a compound that is named as a salt. Where two headings read alike, the source gives them in different places. Marks after values point to notes of the source that are not given here.
# Key:
# [1] = test system: spontaneous dilated cardiomyopathy (J2N-k) hamster model; experiment: Spontaneous dilated cardiomyopathy (J2N-k) hamster model, 8-week administration from 20 weeks of age (Tests 1-3): echocardiography, body weight; details: for Minimal effective dose (screening 2): mg/kg twice per day, oral preparation
# Description: The doses of pharmaceutical products were determined based on the no-observed-adverse-effect levels in a long-term toxicity study using rats. δ-Glycan-deficient spontaneous dilated cardiomyopathy (J2N-k) male hamsters (Japan SLC, Inc.) were delivered at 18 weeks of age. After a 2-week quarantine/acclimation, echocardiography was performed.
# Each of the pharmaceutical products (A to K and O) was individually administered twice daily (at an interval of 8 hours or more) by oral gavage, and echocardiography was performed after 4 and 8 weeks (before dissection). Differences from the value before the start of administration (at the time of grouping) (amount of change: Δ) in each group were examined, and the cardiac function (EF value, FS %, etc.) was compared with that in the vehicle group (Group 1). Moreover, the heart was removed […] after the start of administration, and electron microscopy and RNA protein measurement were performed. Specimens for immunopathology were also collected and evaluated.
# Each pharmaceutical product was individually suspended in 0.5% CMC-Na (sodium carboxymethylcellulose; Wako Pure Chemical Industries, Ltd.) before use, and administered. […] To Group 1 (control), 0.5% CNC-Na (vehicle) was administered.
# Each pharmaceutical product was individually suspended in 0.5% CMC-Na (sodium carboxymethylcellulose; Wako Pure Chemical Industries, Ltd.) before use, and administered. Test substance G was suspended in distilled water before use, and administered.
# Reason the doses were set (assuming that the adult body weight was 60 kg, the same amounts as the maximum clinical doses were set) • 1) The clinical dose of C (ozagrel; OZ) was 200 mg twice per day. The dose was thus set to 3.3 mg/kg twice per day. • 2) The clinical dose of D (cilostazol; CS) was 100 mg twice per day. The dose was thus set to 1.7 mg/kg twice per day. • 3) The clinical dose of E (pirfenidone; PF) was 600 mg three times per day, i.e., 1800 mg/day in total. The dose was thus set to 15 mg/kg twice per day. • 4) The clinical dose of G (nintedanib sulfonate; OB) was 150 mg twice per day. The dose was thus set to 2.5 mg/kg twice per day. • 5) The clinical dose of P (carvedilol; CV) was 10 mg twice per day. The dose was thus set to 0.17 mg/kg twice per day. • 6) Preparation 2 (PLGA⋅MS preparation of camostat; B⋅MS): the clinical dose of active substance camostat was 200 mg three times per day, i.e., 600 mg/day in total; thus, intermittent subcutaneous administration at a daily dose of 10 mg/kg once every 4 weeks, twice in total was set. The dose was 1/28 of the total oral dose amount.
# The dose volume in oral administration was 5 mL/kg (the amount of liquid to be administered to each animal was calculated based on the most recent body weight), and administered by oral gavage using a polypropylene disposable syringe and a rat stomach tube.
# The administration period of each pharmaceutical product was 8 weeks.
# [2] = cited from earlier work; for Cases with side effects (including laboratory test value abnormality): share of cases evaluated for safety
# [3] = test system: rat coronary artery complete ischemia model; experiment: Model of ischemia (MI) by rat coronary artery complete ligation (Tests 1 and 2): echocardiography, body weight; details: MI Test 2, B 150, G 5, I 30, C 10 mg/kg p.o. b.i.d.; for Body weight: B MS 100, C MS 50, I MS 30 mg/kg s.c. single injection, mean; for value of change in E.F. compared with E.F. on Day 1 / value of change in F.S. compared with F.S. on Day 1: B-MS 100, C-MS 50, F-MS 30 mg/kg s.c. single injection, mean ± S.D.
# rats [4] = experiment: Repeated oral administration toxicity study in rats (dose-setting basis); details: mg/kg twice per day, oral preparation
# Description: The dose-setting basis for the doses of the test substances used in pharmacological tests is as described below.
# rats [5] = details: cited from earlier work
# [6] = test system: spontaneous dilated cardiomyopathy J2N-k baby hamsters; experiment: J2N-k baby hamsters (Test 4): administration alone or in combination, echocardiography, body weight; assay type: in vivo, hamster; details: for % FS / EF (%) / value of change in E.F. compared with E.F. at 0 W / value of change in F.S. compared with F.S. at 0 W: Test 4, dose O 0.17, C 3.3, E 15, orally twice daily, mean ± S.D.
# Description: δ-Glycan-deficient spontaneous dilated cardiomyopathy (J2N-k) male hamsters (Japan SLC, Inc.) were delivered at 4 weeks of age. After a 1-week quarantine/acclimation, echocardiography was performed. The hamsters were grouped by stratified random assignment based on the EF values and the body weights so that each administration group was equalized.
# Each test substance was individually administered twice daily (at an interval of 8 hours or more) by oral gavage, and echocardiography was performed 4 and 8 weeks after the start of administration (before dissection). Differences from the value before the start of administration (at the time of grouping) (amount of change: A) in each group were examined, and the cardiac function (EF value, FS %, etc.) was compared with that in the vehicle group (Group 1).
# The doses were set according to the dose-setting basis in Test 3, and similarly orally administered twice daily. Effects of administration of combinations of two or three of carvedilol, which is a β-blocker widely used clinically, and ozagrel and/or pirfenidone were examined.
# rats [7] = details: rats, cited from earlier work
# [8] = Test 2, p.o. b.i.d., NOAEL-based dose
# [9] = Test 4, p.o. b.i.d., clinical dose
# [10] = Test 2, p.o. b.i.d., NOAEL-based dose, listed as lovastatin
compound,measurement,setting,value
"Cn1c(=O)c2[nH]cnc2n(C)c1=O [Compound H, Theophylline]",LVIDd 4 W,"[1]; Test 2, p.o. b.i.d.",7.0 mm
same,LVIDd 8 W,"[1]; Test 2, p.o. b.i.d.",7.3 mm
same,LVIDs 4 W,"[1]; Test 2, p.o. b.i.d.",5.9 ± mm
same,LVIDs 8 W,"[1]; Test 2, p.o. b.i.d.",6.3 mm
same,% FS 4 W,[1]; [8],not significantly higher
same,% FS value of change at 4 W compared with 0 W,[1]; [8],not significantly higher
same,Body weight 0 W,"[1]; hamster, in vivo",121.4 g
same,Body weight 1 W,"[1]; hamster, in vivo, po",120.2 g
same,Body weight 2 W,"[1]; hamster, in vivo, po",120.2 g
same,Body weight 3 W,"[1]; hamster, in vivo, po",121.0 g
same,Body weight 4 W,"[1]; hamster, in vivo, po",122.4 g
same,Body weight 6 W,"[1]; hamster, in vivo, po",122.6 g
same,Body weight 8 W,"[1]; hamster, in vivo, po",123.6 g
same,Headache (headache/heavy-headedness) cases,"[2]; human, in vivo",2.56%
same,Nausea cases (cilostazol: nausea/vomiting),"[2]; human, in vivo",4.05%
same,Palpitations cases,"[2]; human, in vivo",1.17%
same,Cases with side effects (including laboratory test value abnormality),[2],9.05%
"CCCc1nn(C)c2c(=O)[nH]c(-c3cc(S(=O)(=O)N4CCN(C)CC4)ccc3OCC)nc12 [Compound I, Sildenafil citrate]",Body weight,[3]; 1 Day,240.3 g
same,Body weight,[3]; 7 Day,237.3 g
same,Body weight,[3]; 14 Day,263.0 g
same,value of change in E.F. compared with E.F. on Day 1,[3]; 14 Day,<−5.1 ± 2.5> %
same,value of change in F.S. compared with F.S. on Day 1,[3]; 14 Day,<−2.8 ± 1.4> %
same,Body weight,[3]; 21 Day,278.3 g
same,Body weight,[3]; 29 Day,297.5 g
same,value of change in E.F. compared with E.F. on Day 1,[3]; 29 Day,<−7.6 ± 4.3> %
same,value of change in F.S. compared with F.S. on Day 1,[3]; 29 Day,<−4.1 ± 2.3> %
same,Body weight 0 W,"[1]; Test 2, at grouping",120.4 g
same,LVIDd 4 W,"[1]; Test 2, p.o. b.i.d.",7.1 mm
same,LVIDd 8 W,"[1]; Test 2, p.o. b.i.d.",7.3 mm
same,LVIDs 4 W,"[1]; Test 2, p.o. b.i.d.",5.9 mm
same,LVIDs 8 W,"[1]; Test 2, p.o. b.i.d.",6.2 ± mm
same,Body weight 2 W,[1]; [8],122.3 g
same,Body weight 3 W,[1]; [8],123.7 g
same,Body weight 4 W,[1]; [8],125.5 g
same,Body weight 5 W,[1]; [8],126.9 g
same,Body weight 6 W,[1]; [8],128.9 g
same,Minimal effective dose (screening 2),[1],0.4 mg/kg
same,Maximum no-observed-adverse-effect level (screening 1),rats [4],30 mg/kg
same,Lethal dose,rats [5]; intravenous injection in rats,≥ 10 mg/kg
same,Lethal dose,rats [5]; oral administration,≥ 1000 mg/kg
"COc1ccccc1OCCNCC(O)COc1cccc2[nH]c3ccccc3c12 (stereo not shown) [Compound O, Carvedilol]",Body weight 0 W,"[6]; Test 4, at grouping",71.5 g
same,Action on decrease in left ventricular systolic function,"[6]; Test 4, clinical doses p.o. b.i.d., 8 weeks",significant suppression action on a decrease in left ventricular systolic function; also recorded: action of significantly suppressing a decrease in left ventricular systolic function
same,Body weight 2 W,[6]; [9],84.2 g
same,Body weight 4 W,[6]; [9],92.6 g
same,Body weight 5 W,[6]; [9],97.8 g
same,Body weight 6 W,[6]; [9],101.3 g
same,Body weight 7 W,[6]; [9],104.0 g
same,Body weight 8 W,[6]; [9],106.1 g
same,% FS,[6]; 0 W (start of administration),38.8 ± 3.0%
same,EF (%),[6]; 0 W (start of administration),76.9 ± 3.4%
same,% FS,[6]; 4 W,34.4 ± 1.8%
same,EF (%),[6]; 4 W,71.7 ± 2.3%
same,value of change in E.F. compared with E.F. at 0 W,[6]; 4 W,<−5.2 ± 2.3> %
same,value of change in F.S. compared with F.S. at 0 W,[6]; 4 W,<−4.4 ± 2.1> %
same,% FS,[6]; 8 W,30.1 ± 1.3%
same,EF (%),[6]; 8 W,65.8 ± 1.9%
same,value of change in E.F. compared with E.F. at 0 W,[6]; 8 W,<−11.1 ± 3.8> %
same,value of change in F.S. compared with F.S. at 0 W,[6]; 8 W,<−8.7 ± 3.2> %
same,"Cardiac function (EF, FS %) actual measured value and/or amount of change compared with control, 8 W value","[1]; Test 3, clinical dose",significant cardiac function improvement effect
same,"Cardiac function (EF, FS %) actual measured value or change rate compared with control, 4 W value","[1]; Test 3, clinical dose",significant cardiac function improvement effect
same,Cardiac function improvement effect,"[1]; Test 3, clinical dose, summary",cardiac function improvement effect was observed
same,Minimal effective dose (screening 2),[1],0.17 mg/kg
Lovastatin calcium [Compound J],Body weight lower than that in the control group,"[1]; Test 2, 8 weeks after start of administration, 5 mg/kg b.i.d.",about 10%
same,% FS 0 W,"[1]; Test 2, at grouping",17 ± 2%
same,Body weight 0 W,"[1]; Test 2, at grouping",122.9 g
same,EF 0 W,"[1]; Test 2, at grouping",43 ± 3%
same,LVIDd 0 W,"[1]; Test 2, at grouping",6.7 mm
same,LVIDs 0 W,"[1]; Test 2, at grouping",5.6 mm
same,LVIDd 4 W,"[1]; Test 2, p.o. b.i.d.",7.1 mm
same,LVIDd 8 W,"[1]; Test 2, p.o. b.i.d.",7.4 mm
same,LVIDs 4 W,"[1]; Test 2, p.o. b.i.d.",6.0 mm
same,LVIDs 8 W,"[1]; Test 2, p.o. b.i.d.",6.3 ± mm
same,% FS 4 W,[1]; [8],15 ± 1%
same,% FS 8 W,[1]; [8],14 ± 1%
same,% FS value of change at 4 W compared with 0 W,[1]; [8],<−2 ± 1> %
same,% FS value of change at 8 W compared with 0 W,[1]; [8],<−3 ± 1> %
same,Body weight 3 W,[1]; [8],120.8 g
same,Body weight 5 W,[1]; [8],120.3 * g
same,Body weight 7 W,[1]; [8],118.7 ** g
same,Body weight 8 W,[1]; [8],118.0 * g
same,EF 4 W,[1]; [8],39 ± 2%
same,EF 8 W,[1]; [8],37 ± 2%
same,EF value of change at 4 W compared with 0 W,[1]; [8],<−4 ± 1> %
same,EF value of change at 8 W compared with 0 W,[1]; [8],<−6 ± 3> %
same,% FS 4 W,[1]; [10],not significantly higher
same,% FS value of change at 4 W compared with 0 W,[1]; [10],significantly higher
same,LVIDs 8 W,"[1]; Test 2, p.o. b.i.d., listed as lovastatin",significantly lower
same,No-observed-adverse-effect level,rats [7]; 1 month,15 mg/kg
same,No-observed-adverse-effect level,rats [7]; 6 months,2 mg/kg
same,No-observed-adverse-effect level,rats [7]; 13 weeks / 3 months,10 mg/kg
same,CK (CPK) elevation cases,"[2]; human, in vivo",1.6%
same,Elevated AST (GOT) and/or ALT (GPT) / liver enzyme cases,"[2]; human, in vivo",1.7%
same,Muscle pain cases,"[2]; human, in vivo",3.2%
same,Cases with side effects (including laboratory test value abnormality),[2],18.8%
